Source: patent US11446298B2, “Pyrimidine derivatives” (Idorsia Pharmaceuticals Ltd, priority 2017, dated 2022)

Assays:
[1] = target: T1, EP2 (Homo sapiens, UniProt P43116); assay: hEP2 cAMP Assay (SF295 glioblastoma cells, HTRF cAMP, PGE2 75 nM); format: cell-based; details: antagonistic activity, PGE2 75 nM (EC80)
T1 construct: SF295 glioblastoma cells express high endogenous EP2 and no EP4; host or cells: SF295 glioblastoma cells
Procedure: (§1) The antagonistic activities of the compounds of formula (I) on the EP2 and EP4 receptors are also determined in accordance with the following experimental method.
(§2) Human tumor cell lines expressing endogenously either EP4 or EP2 are used and cAMP accumulation in cells upon PGE2 stimulation is monitored. SF295 glioblastoma cells express high endogenous EP2 and no EP4, whereas BT549 breast cancer cells, express high endogenous EP4 levels and very low EP2 levels.
(§3) As a detection method for cAMP the HTRF (homogeneous time resolved fluorescence) Cisbio kit (HTRF cAMP dynamic 2 kit 20′000 tests Cisbio Cat. #62AM4PEC) was used, which is based on a competitive immunoassay using a Cryptate-labeled anti-cAMP antibody and d2-labeled cAMP. Native cAMP produced by cells or unlabeled cAMP (for the standard curve) compete with exogenously added d2-labeled cAMP (acceptor) for binding to monoclonal anti-cAMP-Eu3+Cryptate (donor). A FRET signal (Fluorescence Resonance Energy Transfer) is obtained only if the labeled anti-cAMP antibody binds the d2 labelled cAMP, thus the specific signal (i.e. energy transfer) is inversely proportional to the concentration of cAMP in the standard or sample.
(§4) The SF295 cells (NCI/No. 0503170) are detached from culture dishes with a cell dissociation buffer (Invitrogen, 13151-014), and collected in growing medium (GM: RPM11640 (Invitrogen 21875)/10% FCS, 1% Penicilin/streptomycin). Cells are counted washed and resuspended in assay buffer (AB; HBSS, 20 mM HEPES, 0.2% BSA; 2 mM IBMX). 4′000 cells in 5 μL of AB are seeded per well of a small volume 384 well plate (black with flat bottom, Greiner 784076).
(§5) Stock solutions of test compounds are made at a concentration of 10 mM in DMSO, and serially diluted in DMSO to concentrations required for inhibition dose response curves (tested concentration range 30 μM-0.4 nM; 30 μM-0.015 nM or 1 μM-0.01 nM).
PGE2 (Cayman 14010, stock solution: 75 μM in DMSO) is used as agonist at 75 nM final concentration, corresponding to EC80.
(§6) 2.5 μL of diluted compounds are transferred into the assay plate. Plate is pre-incubated 45 minutes at room temperature. Subsequently, 2.5 μL of PGE2 (final conc. 75 nM) are transferred into the assay plate. Plate is incubated 30 minutes at room temperature. Five μL of each donor (anti-cAMP cryptate) and acceptor (cAMP-d2) are added and the plate is incubated another hour at room temperature in the dark and then read using a BMG LABTECH PHERAstar reader (Excitation: 337 nm, Emission: 620 and 665 nm).
(§7) The obtained Delta F (fluorescence) values (665 nm/620 nM) are converted into % cAMP values using the measurements of the cAMP calibrator provided in the kit. For each compound concentration the percentage of cAMP compared to DMSO control value as average ±STDEV (each concentration is measured in duplicate) is calculated.
(§8) IC50 values and curves are generated with XLfit software (IDBS) using Dose-Response One Site model 203. When compounds were measured multiple times, mean values are given.

[2] = target: T2, EP4 (Homo sapiens, UniProt P35408); assay: hEP4 cAMP Assay (BT549 breast cancer cells, HTRF cAMP, PGE2 6 nM); format: cell-based; details: antagonistic activity, PGE2 6 nM (EC80)
T2 construct: BT549 breast cancer cells, express high endogenous EP4 levels and very low EP2 levels; host or cells: BT549 breast cancer cells
T2 sequence (P35408 whole entry): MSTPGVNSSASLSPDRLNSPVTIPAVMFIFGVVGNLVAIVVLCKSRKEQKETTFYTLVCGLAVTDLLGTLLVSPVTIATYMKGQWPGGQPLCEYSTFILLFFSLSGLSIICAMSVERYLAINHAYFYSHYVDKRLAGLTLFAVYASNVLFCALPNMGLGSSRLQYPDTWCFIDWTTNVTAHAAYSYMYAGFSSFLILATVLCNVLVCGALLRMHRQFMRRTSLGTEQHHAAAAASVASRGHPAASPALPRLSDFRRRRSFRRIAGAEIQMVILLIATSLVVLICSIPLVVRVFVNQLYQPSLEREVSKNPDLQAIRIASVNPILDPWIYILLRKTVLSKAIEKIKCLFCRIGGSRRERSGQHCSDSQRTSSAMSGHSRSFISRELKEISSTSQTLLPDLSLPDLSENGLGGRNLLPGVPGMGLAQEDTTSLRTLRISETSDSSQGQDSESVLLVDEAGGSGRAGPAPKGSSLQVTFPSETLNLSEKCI
Procedure: as §1, §2, §3
as §4, with “BT549” for “SF295”, “0507282)” for “0503170)”, “RPMI1640” for “RPM11640”
as §5
PGE2 (Cayman 14010, stock solution: 6 uM in DMSO) is used as agonist at 6 nM final concentration, corresponding to EC80.
as §6, with “6” for “75”, “5” for “Five”
as §7, §8

T1 sequence (P43116 whole entry): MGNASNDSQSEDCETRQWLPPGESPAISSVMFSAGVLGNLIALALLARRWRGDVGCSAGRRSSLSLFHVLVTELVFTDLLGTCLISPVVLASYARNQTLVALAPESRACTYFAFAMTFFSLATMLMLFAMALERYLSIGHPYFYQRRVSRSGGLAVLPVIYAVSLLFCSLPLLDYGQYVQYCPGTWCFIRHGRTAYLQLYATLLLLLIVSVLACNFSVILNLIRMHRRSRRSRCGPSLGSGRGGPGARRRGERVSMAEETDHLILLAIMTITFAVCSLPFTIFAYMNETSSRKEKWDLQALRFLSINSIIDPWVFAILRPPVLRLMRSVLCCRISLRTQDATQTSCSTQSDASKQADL

Row | Compound | IC50 [1] [nM] | IC50 [2] [nM]
1 | CCOc1cc(-c2cc(NCCc3c(OC)ccc4c(OC)cccc34)ncn2)ccc1OCC(=O)O [Example 55, (4-{6-[2-(2,5-Dimethoxy-naphthalen-1-yl)-ethylamino]-pyrimidin-4-yl}-2-ethoxy-phenoxy)-acetic acid] | 829 | 300
2 | CCOc1cc(-c2cc(NCCc3cccc4sccc34)ncn2)ccc1CC(=O)O [Example 110, {4-[6-(2-Benzo[b]thiophen-4-yl-ethylamino)-pyrimidin-4-yl]-2-ethoxy-phenyl}-acetic acid] | 878 | 597
3 | COc1ccc2cccc(CCNc3cc(-c4cc(C(F)(F)F)c(C(=O)O)s4)ncn3)c2n1 [Example 150, 5-{6-[2-(2-Methoxy-quinolin-8-yl)-ethylamino]-pyrimidin-4-yl}-3-trifluoromethyl-thiophene-2-carboxylic Acid] | 524 | 321
4 | CCOc1cc(-c2cc(NCCc3cccc4ccsc34)ncn2)ccc1OCC(=O)O [Example 104] | 335 | 356
5 | CCOc1cc(-c2cc(NCCc3ccc(OC)c4ccccc34)ncn2)ccc1OCC(=O)O [Example 60, (2-Ethoxy-4-{6-[2-(4-methoxy-naphthalen-1-yl)-ethylamino]-pyrimidin-4-yl}-phenoxy)-acetic acid] | 845 | 384
6 | CCOc1cc(-c2cc(NCCc3cccc4ccoc34)ncn2)ccc1OCC(=O)O [Example 51] | 473 | 853
7 | CCCOc1ccc2ccccc2c1CCNc1cc(-c2cc(OCC)c(C(=O)O)s2)ncn1 [Example 38, 3-Ethoxy-5-{6-[2-(2-propoxy-naphthalen-1-yl)-ethylamino]-pyrimidin-4-yl}-thiophene-2-carboxylic acid] | 22 | 48
8 | COc1cc(CCNc2cc(-c3ccc(C(=O)O)c(OC4CCC4)c3)ncn2)c2ccccc2c1 [Example 41, 2-Cyclobutoxy-4-{6-[2-(3-methoxy-naphthalen-1-yl)-ethylamino]-pyrimidin-4-yl}-benzoic acid] | 297 | 711
9 | 5-{6-[2-(6-Fluoro-2-methoxy-quinolin-8-yl)-ethylamino]-pyrimidin-4-yl}-3-trifluoromethyl-thiophene-2-carboxylic acid [Example 153] | 438 | 283
10 | CCOc1cc(-c2cc(NCCc3c(C)ccc4c3cnn4C)ncn2)ccc1OCC(=O)O [Example 80, (4-{6-[2-(1,5-Dimethyl-1H-indazol-4-yl)-ethylamino]-pyrimidin-4-yl}-2-ethoxy-phenoxy)-acetic acid] | 338 | 495
11 | O=C(O)c1ccc(-c2cc(NCCc3cccc4cccnc34)ncn2)cc1OC1CCC1 [Example 22, 2-Cyclobutoxy-4-[6-(2-quinolin-8-yl-ethylamino)-pyrimidin-4-yl]-benzoic acid] | 949 | 613
12 | CCNC(=O)Nc1ccc(-c2cc(NCCc3c(OC)ccc4ncccc34)ncn2)cc1OC [Example 98, 1-Ethyl-3-(2-methoxy-4-{6-[2-(6-methoxy-quinolin-5-yl)-ethylamino]-pyrimidin-4-yl}-phenyl)-urea] | 354 | 335
13 | CCOc1cc(-c2cc(NCCc3cccc4cc(C)oc34)ncn2)ccc1OCC(=O)O [Example 75, (2-Ethoxy-4-{6-[2-(2-methyl-benzofuran-7-yl)-ethylamino]-pyrimidin-4-yl}-phenoxy)-acetic acid] | 976 | 889
14 | CCOc1cc(-c2cc(NCCc3c(OC)ccc4c(OC)cccc34)ncn2)ccc1C(=O)O [Example 54, 4-{6-[2-(2,5-Dimethoxy-naphthalen-1-yl)-ethylamino]-pyrimidin-4-yl}-2-ethoxy-benzoic acid] | 878 | 420
15 | CCOc1cc(-c2cc(NCCc3cccc4c3OCO4)ncn2)sc1C(=O)O [Example 36, 5-[6-(2-Benzo[1,3]dioxol-4-yl-ethylamino)-pyrimidin-4-yl]-3-ethoxy-thiophene-2-carboxylic acid] | 262 | 368
16 | CCOc1cc(-c2cc(NCCc3cc(OC)cc4ccccc34)ncn2)ccc1C(=O)O [Example 40, 2-Ethoxy-4-{6-[2-(3-methoxy-naphthalen-1-yl)-ethylamino]-pyrimidin-4-yl}-benzoic acid] | 525 | 853
17 | O=C(O)c1sc(-c2cc(NCCc3cccc4cccnc34)ncn2)cc1C(F)(F)F [Example 82, 5-[6-(2-Quinolin-8-yl-ethylamino)-pyrimidin-4-yl]-3-trifluoromethyl-thiophene-2-carboxylic acid] | 987 | 960
18 | COc1ccc(CCNc2cc(-c3ccc(C(=O)O)c(OC4CCC4)c3)ncn2)c2ccccc12 [Example 58, 2-Cyclobutoxy-4-{6-[2-(4-methoxy-naphthalen-1-yl)-ethylamino]-pyrimidin-4-yl}-benzoic acid] | 825 | 401
19 | COc1ccc2c(OC)cccc2c1CCNc1cc(-c2ccc(C(=O)O)c(OC3CCC3)c2)ncn1 [Example 52, 2-Cyclobutoxy-4-{6-[2-(2,5-dimethoxy-naphthalen-1-yl)-ethylamino]-pyrimidin-4-yl}-benzoic acid] | 779 | 758
20 | CCOc1cc(-c2cc(NCCc3cccc4ccn(C)c34)ncn2)ccc1OCC(=O)O [Example 50, (2-Ethoxy-4-{6-[2-(1-methyl-1H-indol-7-yl)-ethylamino]-pyrimidin-4-yl}-phenoxy)-acetic acid] | 399 | 631
21 | COc1ccc2ccccc2c1CCNc1cc(-c2cc(OCCO)c(C(=O)O)s2)ncn1 [Example 156, 3-(2-Hydroxy-ethoxy)-5-{6-[2-(2-methoxy-naphthalen-1-yl)-ethylamino]-pyrimidin-4-yl}-thiophene-2-carboxylic acid] | 7 | 51
22 | CCOc1cc(-c2cc(NCCc3cccc4ccsc34)ncn2)ccc1CC(=O)O [Example 105, {4-[6-(2-Benzo[b]thiophen-7-yl-ethylamino)-pyrimidin-4-yl]-2-ethoxy-phenyl}-acetic acid] | 784 | 685
23 | Cc1ccc2c(cnn2C)c1CCNc1cc(-c2ccc(-c3c(O)c(=O)c3=O)cc2)ncn1 [Example 92, 3-(4-{6-[2-(1,5-Dimethyl-1H-indazol-4-yl)-ethylamino]-pyrimidin-4-yl}-phenyl)-4-hydroxy-cyclobut-3-ene-1,2-dione] | 287 | 544
24 | CCOc1cc(-c2cc(NCCc3cccc4cc(C)n(C)c34)ncn2)ccc1OCC(=O)O [Example 57, (4-{6-[2-(1,2-Dimethyl-1H-indol-7-yl)-ethylamino]-pyrimidin-4-yl}-2-ethoxy-phenoxy)-acetic acid] | 508 | 962
25 | CCOc1cc(-c2cc(NCCc3cccc4sccc34)ncn2)ccc1C(=O)O [Example 106, 4-[6-(2-Benzo[b]thiophen-4-yl-ethylamino)-pyrimidin-4-yl]-2-ethoxy-benzoic acid] | 258 | 867
